Measured values reported in US10131652B2, “Pyrimidinyloxy benzene derivatives as herbicides” (E. I. DU PONT DE NEMOURS AND COMPANY, priority 2014, dated 2018).

Tests used:
Assay in all cases: Test D pre-/postemergence plant response
Format in all cases: in vivo
[1] = test system: velvetleaf (Abutilon theophrasti)
Source text: (§1) Seeds of plant species selected from blackgrass (Alopecurus myosuroides), Italian ryegrass (Lolium multiflorum), winter wheat (Triticum aestivum), galium (catchweed bedstraw, Galium aparine), corn (Zea mays), large (Lg) crabgrass (Digitaria sanguinalis), giant foxtail (Setaria faberii), johnsongrass (Sorghum halepense), lambsquarters (Chenopodium album), morningglory (Ipomoea coccinea), yellow nutsedge (Cyperus esculentus), pigweed (Amaranthus retroflexus), ragweed (common ragweed, Ambrosia elatior), soybean (Glycine max), bamyardgrass (Echinochloa crus-galli), oilseed rape (Brassica napus), waterhemp (common waterhemp, Amaranthus rudis), and velvetleaf (Abutilon theophrasti) were planted into a blend of loam soil and sand and treated preemergence with test chemicals formulated in a non-phytotoxic solvent mixture which included a surfactant. At the same time, plants selected from these crop and weed species and also kochia (Kochia scoparia), wild oat (Avena fatua), and chickweed (common chickweed, Stellaria media) were planted in pots containing Redi-Earth® planting medium (Scotts Company, 14111 Scottslawn Road, Marysville, Ohio 43041) comprising spaghnum peat moss, vermiculite, wetting agent and starter nutrients and treated with postemergence applications of test chemicals formulated in the same manner. Plants ranged in height from 2 to 18 cm (1- to 4-leaf stage) for postemergence treatments. Treated plants and controls were maintained in a greenhouse for 13 to 15 days, after which time all species were compared to controls and visually evaluated. Plant response ratings, summarized in Table D, are based on a scale of 0 to 100 where 0 is no effect and 100 is complete control. A dash (-) response means no test result.

[2] = test system: winter wheat (Triticum aestivum)
Source text: as §1

[3] = test system: yellow nutsedge (Cyperus esculentus)
Source text: as §1

[4] = test system: Italian ryegrass (Lolium multiflorum)
Source text: as §1

[5] = test system: galium (catchweed bedstraw, Galium aparine)
Source text: as §1

[6] = test system: blackgrass (Alopecurus myosuroides)
Source text: as §1

[7] = test system: morningglory (Ipomoea coccinea)
Source text: as §1

[8] = test system: barnyardgrass (Echinochloa crus-galli)
Source text: as §1

[9] = test system: johnsongrass (Sorghum halepense)
Source text: as §1

[10] = test system: giant foxtail (Setaria faberii)
Source text: as §1

soybean (Glycine max) = test system: soybean (Glycine max)
Source text: as §1

[11] = test system: lambsquarters (Chenopodium album)
Source text: as §1

corn (Zea mays) = test system: corn (Zea mays)
Source text: as §1

[12] = test system: oilseed rape (Brassica napus)
Source text: as §1

[13] = test system: large (Lg) crabgrass (Digitaria sanguinalis)
Source text: as §1

[14] = test system: pigweed (Amaranthus retroflexus)
Source text: as §1

[15] = test system: ragweed (common ragweed, Ambrosia elatior)
Source text: as §1

[16] = test system: waterhemp (common waterhemp, Amaranthus rudis)
Source text: as §1

[17] = Postemergence, 31 g ai/ha, scale 0 to 100 (0 no effect, 100 complete control)
[18] = Postemergence, 62 g ai/ha, scale 0 to 100, 0 no effect, 100 complete control
[19] = Postemergence, 125 g ai/ha, scale 0 to 100, 0 no effect, 100 complete control
[20] = Preemergence, 16 g ai/ha, scale 0 to 100 (0 no effect, 100 complete control)
[21] = Preemergence, 31 g ai/ha, scale 0 to 100 (0 no effect, 100 complete control)
[22] = Preemergence, 62 g ai/ha, scale 0 to 100 (0 no effect, 100 complete control)

## FC(F)c1cc(-c2c(Cl)cccc2Oc2ncc(Cl)cn2)no1 [Compound 179]
[1]; Postemergence, 16 g ai/ha
  Plant response rating (scale 0 to 100), Velvetleaf: 15
[1]; [17]
  Velvetleaf plant response rating: 20
[1]; [18]
  Velvetleaf plant response rating: 30
[1]; [19]
  Plant response rating, Velvetleaf: 70
[1]; Preemergence, 125 g ai/ha
  Plant response rating (scale 0 to 100), Velvetleaf: 100
[1]; [20]
  Plant response rating, Velvetleaf: 15
[1]; [21]
  Plant response rating, Velvetleaf: 65
[1]; [22]
  Plant response rating, Velvetleaf: 85
[2]; Postemergence, 16 g ai/ha
  Plant response rating (scale 0 to 100), Wheat: 5
[2]; [17]
  Wheat plant response rating: 10
[2]; [18]
  Wheat plant response rating: 30
[2]; [19]
  Plant response rating, Wheat: 35
[2]; Preemergence, 125 g ai/ha
  Plant response rating (scale 0 to 100), Wheat: 35
[2]; [20]
  Plant response rating, Wheat: 0
[2]; [21]
  Plant response rating, Wheat: 0
[2]; [22]
  Plant response rating, Wheat: 0
[3]; Postemergence, 16 g ai/ha
  Plant response rating (scale 0 to 100), Nutsedge, Yellow: 5
[3]; [17]
  Nutsedge, Yellow plant response rating: 5
[3]; [18]
  Nutsedge, Yellow plant response rating: 5
[3]; [19]
  Plant response rating, Nutsedge, Yellow: 5
[3]; Preemergence, 125 g ai/ha
  Plant response rating (scale 0 to 100), Nutsedge, Yellow: 25
[3]; [20]
  Plant response rating, Nutsedge, Yellow: 0
[3]; [21]
  Plant response rating, Nutsedge, Yellow: 0
[3]; [22]
  Plant response rating, Nutsedge, Yellow: 0
[4]; Postemergence, 16 g ai/ha
  Plant response rating (scale 0 to 100), Ryegrass, Italian: 0
[4]; [17]
  Ryegrass, Italian plant response rating: 5
[4]; [18]
  Ryegrass, Italian plant response rating: 5
[4]; [19]
  Plant response rating, Ryegrass, Italian: 20
[4]; Preemergence, 125 g ai/ha
  Plant response rating (scale 0 to 100), Ryegrass, Italian: 80
[4]; [20]
  Plant response rating, Ryegrass, Italian: 0
[4]; [21]
  Plant response rating, Ryegrass, Italian: 5
[4]; [22]
  Plant response rating, Ryegrass, Italian: 15
[5]; Postemergence, 16 g ai/ha
  Plant response rating (scale 0 to 100), Galium: 70
[5]; [17]
  Galium plant response rating: 80
[5]; [18]
  Plant response rating, Galium: 70
[5]; [19]
  Plant response rating, Galium: 75
[5]; Preemergence, 125 g ai/ha
  Plant response rating (scale 0 to 100), Galium: 98
[5]; [20]
  Plant response rating, Galium: 90
[5]; [21]
  Plant response rating, Galium: 90
[5]; [22]
  Plant response rating, Galium: 90
[6]; Postemergence, 16 g ai/ha
  Plant response rating (scale 0 to 100), Blackgrass: 5
[6]; [17]
  Blackgrass plant response rating: 5
[6]; [18]
  Plant response rating, Blackgrass: 15
[6]; [19]
  Plant response rating, Blackgrass: 20
[6]; Preemergence, 125 g ai/ha
  Plant response rating (scale 0 to 100), Blackgrass: 80
[6]; [20]
  Plant response rating, Blackgrass: 0
[6]; [21]
  Plant response rating, Blackgrass: 30
[6]; [22]
  Plant response rating, Blackgrass: 45
[7]; Postemergence, 16 g ai/ha
  Plant response rating (scale 0 to 100), Morningglory: 30
[7]; [17]
  Morningglory plant response rating: 65
[7]; [18]
  Morningglory plant response rating: 85
[7]; [19]
  Plant response rating, Morningglory: 90
[7]; Preemergence, 125 g ai/ha
  Plant response rating (scale 0 to 100), Morningglory: 15
[7]; [20]
  Plant response rating, Morningglory: 0
[7]; [21]
  Plant response rating, Morningglory: 0
[7]; [22]
  Plant response rating, Morningglory: 0
[8]; Postemergence, 16 g ai/ha
  Plant response rating (scale 0 to 100), Barnyardgrass: 0
[8]; [17]
  Barnyardgrass plant response rating: 0
[8]; [18]
  Plant response rating, Barnyardgrass: 5
[8]; [19]
  Plant response rating, Barnyardgrass: 5
[8]; Preemergence, 125 g ai/ha
  Plant response rating (scale 0 to 100), Barnyardgrass: 35
[8]; [20]
  Plant response rating, Barnyardgrass: 0
[8]; [21]
  Plant response rating, Barnyardgrass: 5
[8]; [22]
  Plant response rating, Barnyardgrass: 15
[9]; Postemergence, 16 g ai/ha
  Plant response rating (scale 0 to 100), Johnsongrass: 0
[9]; [17]
  Johnsongrass plant response rating: 5
[9]; [18]
  Plant response rating, Johnsongrass: 5
[9]; [19]
  Plant response rating, Johnsongrass: 5
[9]; Preemergence, 125 g ai/ha
  Plant response rating (scale 0 to 100), Johnsongrass: 65
[9]; [20]
  Plant response rating, Johnsongrass: 0
[9]; [21]
  Plant response rating, Johnsongrass: 0
[9]; [22]
  Plant response rating, Johnsongrass: 20
[10]; Postemergence, 16 g ai/ha
  Plant response rating (scale 0 to 100), Foxtail, Giant: 5
[10]; [17]
  Foxtail, Giant plant response rating: 5
[10]; [18]
  Plant response rating, Foxtail, Giant: 40
[10]; [19]
  Plant response rating, Foxtail, Giant: 30
[10]; Preemergence, 125 g ai/ha
  Plant response rating (scale 0 to 100), Foxtail, Giant: 85
[10]; [20]
  Plant response rating, Foxtail, Giant: 5
[10]; [21]
  Plant response rating, Foxtail, Giant: 30
[10]; [22]
  Plant response rating, Foxtail, Giant: 85
Soybean (Glycine max); Postemergence, 16 g ai/ha
  Plant response rating (scale 0 to 100), Soybean: 25
Soybean (Glycine max); [17]
  Soybean plant response rating: 45
Soybean (Glycine max); [18]
  Soybean plant response rating: 70
Soybean (Glycine max); [19]
  Plant response rating, Soybean: 70
Soybean (Glycine max); Preemergence, 125 g ai/ha
  Plant response rating (scale 0 to 100), Soybean: 45
Soybean (Glycine max); [20]
  Plant response rating, Soybean: 0
Soybean (Glycine max); [21]
  Plant response rating, Soybean: 0
Soybean (Glycine max); [22]
  Plant response rating, Soybean: 30
[11]; Postemergence, 16 g ai/ha
  Plant response rating (scale 0 to 100), Lambsquarters: 70
[11]; [17]
  Lambsquarters plant response rating: 75
[11]; [18]
  Lambsquarters plant response rating: 75
[11]; [19]
  Plant response rating, Lambsquarters: 100
[11]; Preemergence, 125 g ai/ha
  Plant response rating (scale 0 to 100), Lambsquarters: 100
[11]; [20]
  Plant response rating, Lambsquarters: 75
[11]; [21]
  Plant response rating, Lambsquarters: 100
[11]; [22]
  Plant response rating, Lambsquarters: 100
Corn (Zea mays); Postemergence, 16 g ai/ha
  Plant response rating (scale 0 to 100), Corn: 5
Corn (Zea mays); [17]
  Corn plant response rating: 10
Corn (Zea mays); [18]
  Plant response rating, Corn: 10
Corn (Zea mays); [19]
  Plant response rating, Corn: 15
Corn (Zea mays); Preemergence, 125 g ai/ha
  Plant response rating (scale 0 to 100), Corn: 5
Corn (Zea mays); [20]
  Plant response rating, Corn: 0
Corn (Zea mays); [21]
  Plant response rating, Corn: 0
Corn (Zea mays); [22]
  Plant response rating, Corn: 0
[12]; Postemergence, 16 g ai/ha
  Plant response rating (scale 0 to 100), Oilseed Rape: 40
[12]; [17]
  Oilseed Rape plant response rating: 75
[12]; [18]
  Oilseed Rape plant response rating: 85
[12]; [19]
  Plant response rating, Oilseed Rape: 100
[12]; Preemergence, 125 g ai/ha
  Plant response rating (scale 0 to 100), Oilseed Rape: 100
[12]; [20]
  Plant response rating, Oilseed Rape: 30
[12]; [21]
  Plant response rating, Oilseed Rape: 95
[13]; Postemergence, 16 g ai/ha
  Plant response rating (scale 0 to 100), Crabgrass, Large: 5
[13]; [17]
  Crabgrass, Large plant response rating: 5
[13]; [18]
  Plant response rating, Crabgrass, Large: 5
[13]; [19]
  Plant response rating, Crabgrass, Large: 5
[13]; Preemergence, 125 g ai/ha
  Plant response rating (scale 0 to 100), Crabgrass, Large: 100
[13]; [20]
  Plant response rating, Crabgrass, Large: 10
[13]; [21]
  Plant response rating, Crabgrass, Large: 65
[13]; [22]
  Plant response rating, Crabgrass, Large: 75
[14]; Postemergence, 16 g ai/ha
  Plant response rating (scale 0 to 100), Pigweed: 80
[14]; [17]
  Pigweed plant response rating: 90
[14]; [18]
  Pigweed plant response rating: 98
[14]; [19]
  Plant response rating, Pigweed: 98
[14]; Preemergence, 125 g ai/ha
  Plant response rating (scale 0 to 100), Pigweed: 100
[14]; [20]
  Plant response rating, Pigweed: 30
[14]; [21]
  Plant response rating, Pigweed: 100
[14]; [22]
  Plant response rating, Pigweed: 100
[15]; Postemergence, 16 g ai/ha
  Plant response rating (scale 0 to 100), Ragweed: 30
[15]; [17]
  Ragweed plant response rating: 25
[15]; [18]
  Ragweed plant response rating: 50
[15]; [19]
  Plant response rating, Ragweed: 60
[15]; Preemergence, 125 g ai/ha
  Plant response rating (scale 0 to 100), Ragweed: 60
[15]; [20]
  Plant response rating, Ragweed: 25
[15]; [21]
  Plant response rating, Ragweed: 30
[15]; [22]
  Plant response rating, Ragweed: 40
[16]; Postemergence, 16 g ai/ha
  Plant response rating (scale 0 to 100), Waterhemp: 60
[16]; [17]
  Waterhemp plant response rating: 90
[16]; [18]
  Waterhemp plant response rating: 95
[16]; [19]
  Plant response rating, Waterhemp: 98
[16]; Preemergence, 125 g ai/ha
  Plant response rating (scale 0 to 100), Waterhemp: 100
[16]; [20]
  Plant response rating, Waterhemp: 75
[16]; [21]
  Plant response rating, Waterhemp: 90
[16]; [22]
  Plant response rating, Waterhemp: 90
